Strand notation (5' to 3'): a small letter for the sugar, then the base; units joined by * are phosphorothioate-linked, units joined directly phosphodiester-linked; [ ] holds rarer units or linkages, { } end groups; capitals alone tell only the bases. k = constrained ethyl (cEt); [5mC] = 5-methylcytosine; d = 2'-deoxy (DNA)
What follows are substances tested on human SMAD7 mRNA (assay: Antisense inhibition of human SMAD7 mRNA expression in Hep3B cells by 3-10-3 cEt gapmers, 10,000 nM, electroporation (Example 2)). Conditions: Hep3B cells, electroporation with 10,000 nM antisense oligonucleotide, approximately 24 hours, SMAD7 mRNA by RT-PCR (RTS5062), relative to untreated control cells.
Assay type: cell-based
Summary of the method: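 SMAD7 mRNA was measured by real-time PCR (RTS5062) with RiboGreen total-RNA normalization, about 24 h after 10,000 nM gapmer was delivered by electroporation into Hep3B cells at 20,000 per well. Gapmers were 16-mer 3-10-3 cEt, fully phosphorothioate; values are % inhibition versus untreated controls.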

Substance	% Inhibition
830014 (antisense kG*kG*kT*dG*d[5mC]*d[5mC]*dA*dG*dT*d[5mC]*dT*d[5mC]*dA*kA*kA*kT) [compound 830014]	22%
830015 (antisense kG*k[5mC]*kT*dG*dG*dT*dG*d[5mC]*d[5mC]*dA*dG*dT*d[5mC]*kT*k[5mC]*kA) [compound 830015]	56%
830016 (antisense kG*kG*kT*dG*d[5mC]*d[5mC]*d[5mC]*dA*dA*d[5mC]*d[5mC]*d[5mC]*dT*kT*k[5mC]*kA) [compound 830016]	32%
830017 (antisense kA*kG*kG*d[5mC]*dG*dG*dA*dA*dG*dG*dA*d[5mC]*dT*kT*kG*k[5mC]) [compound 830017]	30%
830018 (antisense k[5mC]*k[5mC]*k[5mC]*dA*dA*d[5mC]*dA*dG*d[5mC]*d[5mC]*dA*dA*dA*kA*k[5mC]*kG) [compound 830018]	10%
830019 (antisense kA*kG*kG*d[5mC]*d[5mC]*d[5mC]*dA*dA*d[5mC]*dA*dG*d[5mC]*d[5mC]*kA*kA*kA) [compound 830019]	16%
830020 (antisense kG*kA*kA*dA*dG*dG*d[5mC]*d[5mC]*d[5mC]*dA*dA*d[5mC]*dA*kG*k[5mC]*k[5mC]) [compound 830020]	23%
830021 (antisense kG*kG*kG*dA*dA*dA*dG*dG*d[5mC]*d[5mC]*d[5mC]*dA*dA*k[5mC]*kA*kG) [compound 830021]	42%
830022 (antisense kG*kG*k[5mC]*dT*dG*d[5mC]*dA*dG*dA*dG*dT*dA*dT*kG*kG*kG) [compound 830022]	59%
830023 (antisense kT*k[5mC]*kA*d[5mC]*dA*dT*dG*d[5mC]*dT*dT*dT*dG*d[5mC]*kG*kG*kG) [compound 830023]	57%
830024 (antisense kT*kG*kT*dA*dA*dA*dT*d[5mC]*dG*dA*dA*dA*dG*k[5mC]*kA*kA) [compound 830024]	40%
830026 (antisense kT*kT*kT*dT*dG*dT*dA*dA*dA*dT*d[5mC]*dG*dA*kA*kA*kG) [compound 830026]	0%
830029 (antisense kT*k[5mC]*kA*d[5mC]*dT*d[5mC]*d[5mC]*dA*d[5mC]*dT*d[5mC]*dA*d[5mC]*k[5mC]*kG*kA) [compound 830029]	56%
830030 (antisense kA*k[5mC]*k[5mC]*dT*dA*dA*dT*dG*dT*d[5mC]*dA*dA*d[5mC]*kA*k[5mC]*kT) [compound 830030]	36%
830031 (antisense kT*kA*k[5mC]*d[5mC]*dT*dA*dA*dT*dG*dT*d[5mC]*dA*dA*k[5mC]*kA*k[5mC]) [compound 830031]	44%
830032 (antisense kG*k[5mC]*kT*dA*d[5mC]*d[5mC]*dT*dA*dA*dT*dG*dT*d[5mC]*kA*kA*k[5mC]) [compound 830032]	35%
830033 (antisense kT*k[5mC]*k[5mC]*d[5mC]*d[5mC]*d[5mC]*dT*dT*dG*dG*dA*dA*dA*kT*kG*kG) [compound 830033]	28%
830034 (antisense kG*kG*k[5mC]*dT*dG*dA*dT*d[5mC]*dT*dG*dG*dA*dG*kA*kA*k[5mC]) [compound 830034]	30%
830035 (antisense kA*kT*kT*dG*dG*d[5mC]*dT*dG*dA*dT*d[5mC]*dT*dG*kG*kA*kG) [compound 830035]	48%
830036 (antisense kT*kA*kT*dT*dG*dG*d[5mC]*dT*dG*dA*dT*d[5mC]*dT*kG*kG*kA) [compound 830036]	52%

Same assay, conditions: SMAD7 mRNA, Hep3B cells, electroporation with 10,000 nM antisense oligonucleotide, approximately 24 hours, primer probe set RTS5062, relative to untreated control cells

Substance	% Inhibition
829976 (kA*k[5mC]*kA*dA*dA*dA*dG*dA*dG*dG*d[5mC]*d[5mC]*dG*k[5mC]*k[5mC]*kT; antisense) [compound 829976]	10%
829977 (kT*kA*kG*d[5mC]*dT*dG*dT*d[5mC]*dA*dG*dA*dT*dA*kA*kA*k[5mC]; antisense) [compound 829977]	35%
829978 (kA*kT*kA*dT*dT*dT*dA*dG*d[5mC]*dT*dG*dT*d[5mC]*kA*kG*kA; antisense) [compound 829978]	50%
829979 (kT*kG*kA*dT*dA*dT*dT*dT*dA*dG*d[5mC]*dT*dG*kT*k[5mC]*kA; antisense) [compound 829979]	49%
829981 (kG*kT*kG*dA*dT*dT*dG*d[5mC]*d[5mC]*dT*dT*dG*dA*kT*kA*kT; antisense) [compound 829981]	14%
829982 (k[5mC]*kG*kG*dT*dG*dA*dT*dT*dG*d[5mC]*d[5mC]*dT*dT*kG*kA*kT; antisense) [compound 829982]	44%
829983 (kG*kG*k[5mC]*dG*dG*dT*dG*dA*dT*dT*dG*d[5mC]*d[5mC]*kT*kT*kG; antisense) [compound 829983]	43%
829984 (kA*kG*kG*d[5mC]*dG*dG*dT*dG*dA*dT*dT*dG*d[5mC]*k[5mC]*kT*kT; antisense) [compound 829984]	0%
829985 (kG*kA*kG*dG*d[5mC]*dG*dG*dT*dG*dA*dT*dT*dG*k[5mC]*k[5mC]*kT; antisense) [compound 829985]	16%
829986 (k[5mC]*kG*kA*dG*dG*d[5mC]*dG*dG*dT*dG*dA*dT*dT*kG*k[5mC]*k[5mC]; antisense) [compound 829986]	28%
829987 (k[5mC]*k[5mC]*kG*d[5mC]*dG*dA*dG*dG*d[5mC]*dG*dG*dT*dG*kA*kT*kT; antisense) [compound 829987]	6%
829988 (kG*k[5mC]*k[5mC]*dG*d[5mC]*dG*dA*dG*dG*d[5mC]*dG*dG*dT*kG*kA*kT; antisense) [compound 829988]	27%
829989 (kG*kG*k[5mC]*d[5mC]*dG*d[5mC]*dG*dA*dG*dG*d[5mC]*dG*dG*kT*kG*kA; antisense) [compound 829989]	2%
829990 (kG*kG*kG*d[5mC]*d[5mC]*dG*d[5mC]*dG*dA*dG*dG*d[5mC]*dG*kG*kT*kG; antisense) [compound 829990]	35%
829991 (kA*kG*kG*dG*d[5mC]*d[5mC]*dG*d[5mC]*dG*dA*dG*dG*d[5mC]*kG*kG*kT; antisense) [compound 829991]	26%
829992 (kG*k[5mC]*kA*dG*dG*dG*d[5mC]*d[5mC]*dG*d[5mC]*dG*dA*dG*kG*k[5mC]*kG; antisense) [compound 829992]	10%
829993 (kG*kG*k[5mC]*dA*dG*dG*dG*d[5mC]*d[5mC]*dG*d[5mC]*dG*dA*kG*kG*k[5mC]; antisense) [compound 829993]	26%

Substance	% Inhibition
829996 (kT*kT*kT*dG*dT*d[5mC]*dT*dT*dA*dG*d[5mC]*dT*dG*kT*kG*kG; antisense) [compound 829996]	54%
829997 (kG*kT*kT*dT*dG*dT*d[5mC]*dT*dT*dA*dG*d[5mC]*dT*kG*kT*kG; antisense) [compound 829997]	21%
829998 (kT*kG*kT*dT*dT*dG*dT*d[5mC]*dT*dT*dA*dG*d[5mC]*kT*kG*kT; antisense) [compound 829998]	34%
829999 (k[5mC]*kT*kG*dT*dT*dT*dG*dT*d[5mC]*dT*dT*dA*dG*k[5mC]*kT*kG; antisense) [compound 829999]	46%
830000 (kA*k[5mC]*kT*dG*dT*dT*dT*dG*dT*d[5mC]*dT*dT*dA*kG*k[5mC]*kT; antisense) [compound 830000]	51%
830001 (kG*k[5mC]*k[5mC]*d[5mC]*dA*dA*d[5mC]*dT*dG*dT*dT*dT*dG*kT*k[5mC]*kT; antisense) [compound 830001]	24%
830002 (kT*kA*kG*d[5mC]*d[5mC]*d[5mC]*dA*dA*d[5mC]*dT*dG*dT*dT*kT*kG*kT; antisense) [compound 830002]	43%
830003 (antisense kG*kG*k[5mC]*dA*dT*dT*d[5mC]*dT*dT*dT*dT*dA*dG*k[5mC]*k[5mC]*k[5mC]) [compound 830003]	0%
830004 (antisense kT*kA*kA*dA*dG*dG*d[5mC]*d[5mC]*d[5mC]*dA*dG*d[5mC]*d[5mC]*kA*kT*kG) [compound 830004]	24%
830005 (antisense k[5mC]*kT*k[5mC]*dA*d[5mC]*d[5mC]*dA*dG*dT*dT*dG*dG*dT*kT*kT*kG) [compound 830005]	13%
830006 (antisense kA*k[5mC]*kT*d[5mC]*dA*d[5mC]*d[5mC]*dA*dG*dT*dT*dG*dG*kT*kT*kT) [compound 830006]	0%
830007 (antisense k[5mC]*kT*kA*d[5mC]*dT*d[5mC]*dA*d[5mC]*d[5mC]*dA*dG*dT*dT*kG*kG*kT) [compound 830007]	0%
830008 (antisense kT*kA*kG*dA*dG*dG*d[5mC]*dT*d[5mC]*dT*dA*dT*dT*kT*k[5mC]*kT) [compound 830008]	0%
830009 (antisense kG*kT*kG*dT*dT*dA*dA*dA*dG*d[5mC]*dT*dG*dA*kG*k[5mC]*k[5mC]) [compound 830009]	52%
830011 (antisense k[5mC]*k[5mC]*kA*dG*dT*d[5mC]*dT*d[5mC]*dA*dA*dA*dT*dG*kG*kG*k[5mC]) [compound 830011]	25%
830012 (antisense kG*k[5mC]*k[5mC]*dA*dG*dT*d[5mC]*dT*d[5mC]*dA*dA*dA*dT*kG*kG*kG) [compound 830012]	37%
830013 (antisense kG*kT*kG*d[5mC]*d[5mC]*dA*dG*dT*d[5mC]*dT*d[5mC]*dA*dA*kA*kT*kG) [compound 830013]	55%

— patent US10517889B2, “Modulators of SMAD7 expression” (Ionis Pharmaceuticals, Inc., priority 2017, dated 2019)
